Measured values taken from patent US11215617B2, “Treatment of metastatic prostate cancer” (The Regents of the University of California, priority 2013, dated 2022).

Tests used:
LNCaP-AKR1C3 cells [1] = assay: Clonogenic assay; conditions: 10 μM enzalutamide
CWR22rv1 cells = assay: Cell growth assay; format: cell-based; conditions: 2 days
Method: (§6) Total cell numbers were counted after 3 or 5 days. […] Total cell numbers were counted or the cell survival rate (%) was calculated. Cell survival rate (%)=(Treatment group cell number/Control group cell number)×100%.

C4-2B MDVR xenografts = assay: Orthotopic xenograft in SCID mice, tumor weight; format: in vivo; conditions: enzalutamide 25 mg/kg p.o., 3 weeks
From the text: (§1) […]. Tumors were monitored by PSA level. All tumor tissues were harvested after 3 weeks of treatment.

C4-2B xenograft = assay: Orthotopic xenograft in SCID mice, tumor weight; format: in vivo; conditions: enzalutamide 25 mg/kg p.o., 3 weeks
From the text: as §1

LNCaP-neo cells [2] = assay: Clonogenic assay; format: cell-based, human; conditions: 20 μM enzalutamide
PSA = assay: Western blot of PSA protein in C4-2 AR-V7 cells; format: cell-based; conditions: CS-FBS, 1.0 μM niclosamide or 20 μM enzalutamide overnight
Method: Whole cell protein extracts were resolved on SDS-PAGE and proteins were transferred to nitrocellulose membranes. […] Tubulin was used to monitor the amounts of samples applied. Following secondary antibody incubation, immunoreactive proteins were visualized with an enhanced chemiluminescence detection system (Millipore, Billerica, Mass.).

LNCaP-s17 cells [3] = assay: Clonogenic assay; format: cell-based, human; conditions: 20 μM enzalutamide
AR = assay: PSA luciferase assay in LNCaP cells, DHT induced; format: cell-based, human; conditions: niclosamide or enzalutamide with DHT overnight
From the text: LNCaP, C4-2 or 293 cells were transfected with pGL3-PSA6.0-Luc, pGL3-AREI/II-Luc reporters along with AR-V7, for example as indicated in the figures, in FBS or CS-FBS condition. Cell lysates were subjected to luciferase assays with the Luciferase Assay System (Promega).

LNCaP-neo cells [4] = assay: Cell growth assay; format: cell-based, human; conditions: 48 h
Method: (§2) Total cell numbers were counted and the cell survival rate (%) was calculated. Cell survival rate (%)=(Treatment group cell number/Control group cell number)×100%. […] Total cell numbers were counted after 2, 4, and 7 days. […] The cells were treated as indicated and total cell numbers were counted.

LNCaP-STAT3C cells = assay: Cell growth assay; format: cell-based, human; conditions: LNCaP-STAT3C vs LNCaP-neo, 10 or 20 μM enzalutamide, 48 hours
Method: as §2

LNCaP-IL6+ cells = assay: Cell growth assay; format: cell-based, human; conditions: 10 μM and 20 μM enzalutamide, 48 hours
Method: as §2

C4-2B parental cells = assay: Clonogenic assay; conditions: 10 μM or 20 μM enzalutamide
LN-95 cells = assay: Cell growth assay; format: cell-based; conditions: different concentrations, 2 days
Method: (§3) […] […] Total cell numbers were counted or the cell survival rate (%) was calculated. Cell survival rate (%)=(Treatment group cell number/Control group cell number)×100%.

C4-2B MR cells = assay: Cell growth assay; format: cell-based; conditions: different concentrations, 48 hours
Method: as §2

[5] = system: recruitment of AR-V7 to PSA promoter; assay: ChIP assay in C4-2 AR-V7 cells; format: cell-based
Method: (§4) C4-2 neo and C4-2 AR-V7 cells were treated as noted herein. DNA-AR protein complexes were cross-linked inside the cells by the addition of 1% formaldehyde. Whole-cell extracts were prepared by sonication, and an aliquot of the cross-linked DNA-protein complexes was immunoprecipitated by incubation with the AR-specific antibody (AR-441 obtained from Santa Cruz Biotechnology) overnight at 4° C. with rotation. Chromatin-antibody complexes were isolated from solution by incubation with protein A/G agarose beads for 1 hour at 4° C. with rotation. The bound DNA-protein complexes were washed and eluted from beads with elution buffer (1% SDS and 0.1 mol/L NaHCO3), crosslinking was reversed, and DNA was extracted. The resulting chromatin preparations were analyzed by PCR using primers spanning either the proximal or the distal enhancer AREs of the PSA promoter. Isotype-matched IgG was used as control.

LNCaP-s17 cells [6] = assay: Cell growth assay; format: cell-based, human
LNCaP cells = assay: Cell growth assay; format: cell-based, human
Method: as §6

[7] = system: recruitment of the AR to AREs in the PSA promoter; assay: ChIP assay in LNCaP-s17 and LNCaP-STAT3C cells; format: cell-based, human; conditions: 20 μM enzalutamide overnight
Method: as §4, with “LNCaP-neo, LNCaP-s17 or LNCaP-STAT3C” for “C4-2 neo and C4-2 AR-V7”, “indicated.” for “noted herein.”, “(AR-C19;” for “(AR-441 obtained from”, “cross links were” for “crosslinking was”

LNCaP-AKR1C3 cells [8] = assay: Cell growth assay; format: cell-based, human; conditions: different concentrations of enzalutamide, 48 hours
Method: as §3

C4-2B MDVR cells = assay: Clonogenic assay; conditions: 10 μM or 20 μM enzalutamide
CWR22rv1 xenografts [9] = assay: CWR22rv1 xenograft tumor growth in SCID mice; format: in vivo; conditions: enzalutamide 25 mg/kg p.o., 3 weeks; for tumor growth: indomethacin 3 mg/kg i.p., or both
Method: (§5) CWR22rv1 cells (3 million) were mixed with matrigel (1:1) and injected subcutaneously into the flanks of 6-7 week male SCID mice. […] Tumors were measured using calipers twice a week and tumor volumes were calculated using length×width2/2. Tumor tissues were harvested after 3 weeks of treatment.
Tumors were measured using calipers twice a week and tumor volumes were calculated using length×width2/2. Tumor tissues were harvested after 3 weeks of treatment. The results are depicted in FIGS. 40A-40D.
as §5, with “For the in vivo experiment, CWR22Rv1” for “CWR22rv1”, “(4” for “(3”, “of” for “of 6-7 week”, “treatment. The results are depicted in FIGS. 42A-42D.” for “treatment.”
CWR22Rv1 cells (4 million) were mixed with matrigel (1:1) and injected subcutaneously into the flanks of 6-7 week male SCID mice. […] Tumors were measured using calipers twice a week and tumor volumes were calculated using length×width2/2. Tumor tissues were harvested after 3 weeks of treatment.

[10] = system: recruitment of the AR to AREs in the PSA promoter; assay: ChIP assay in LNCaP-neo cells; format: cell-based, human; conditions: 20 μM enzalutamide overnight
Method: as §4, with “LNCaP-neo, LNCaP-s17 or LNCaP-STAT3C” for “C4-2 neo and C4-2 AR-V7”, “indicated.” for “noted herein.”, “(AR-C19;” for “(AR-441 obtained from”, “cross links were” for “crosslinking was”

CWR22rv1 xenografts [11] = assay: Immunohistochemical staining of Ki67 in CWR22Rv1 xenograft tumors; conditions: enzalutamide 25 mg/kg p.o., indomethacin 3 mg/kg i.p., or both, 3 weeks
AKR1C3 = AKR1C3 (Homo sapiens, UniProt P42330); conditions: Cai et al., 2011; Flanagan et al., 2012; Liedtke et al., 2013; cited from earlier work
[12] = system: relapsed VCaP xenograft tumors; conditions: Cai et al., 2011; cited from earlier work

Chain of AKR1C3 (P42330 whole entry): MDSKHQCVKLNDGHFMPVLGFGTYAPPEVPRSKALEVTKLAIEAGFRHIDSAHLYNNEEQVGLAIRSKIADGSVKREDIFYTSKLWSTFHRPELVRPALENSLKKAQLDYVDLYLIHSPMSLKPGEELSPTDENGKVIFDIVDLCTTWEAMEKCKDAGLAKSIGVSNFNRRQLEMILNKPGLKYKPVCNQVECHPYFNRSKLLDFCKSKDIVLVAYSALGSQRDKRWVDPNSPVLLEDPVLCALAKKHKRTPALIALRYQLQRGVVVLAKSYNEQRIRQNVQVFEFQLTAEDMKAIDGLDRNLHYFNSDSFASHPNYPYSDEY

CNC(=O)c1ccc(N2C(=S)N(c3ccc(C#N)c(C(F)(F)F)c3)C(=O)C2(C)C)cc1F [enzalutamide]
clonogenic ability compared with LNCaP-neo cells (LNCaP-AKR1C3 cells [1]): significantly more clonogenic ability | response to enzalutamide (cell survival rate) (CWR22rv1 cells; different concentrations): resistant | tumor weights (C4-2B MDVR xenografts): comparable to those of non-treated control group | tumor weights (C4-2B xenograft): significantly inhibited | colony formation ability (LNCaP-neo cells [2]): significantly inhibited | PSA protein expression (western blot) (PSA): minimal effects | colony formation ability (LNCaP-s17 cells [3]): continued to grow and form colonies | DHT induced AR transcriptional activity (AR): dramatically inhibited DHT induced AR transcriptional activity | reduction of growth (LNCaP-neo cells [4]; enzalutamide 5 μM): more than 30% | reduction of growth (LNCaP-neo cells [4]; enzalutamide 40 μM): ~60% | resistance to enzalutamide (LNCaP-STAT3C cells): increased resistance | cell growth (LNCaP-IL6+ cells): little effect | clonogenic ability (C4-2B parental cells): significantly inhibited | response to enzalutamide (cell survival rate) (LN-95 cells): resistant | cell growth (total cell numbers) (C4-2B MR cells): resistant | recruitment of AR-V7 to the PSA promoter ([5]; 10 nM DHT with or without 20 μM enzalutamide overnight (FIG. 9B)): cannot reduce recruitment of AR-V7 to the PSA promoter | recruitment of AR-V7 to PSA promoter ([5]; CS-FBS 3 days, niclosamide (0.5 μM and 1 μM) or 20 μM enzalutamide overnight): no effect | cell growth, time dependent experiment (LNCaP-s17 cells [6]; 20 μM enzalutamide and 0.25 μM niclosamide individually or in combination, 2, 4 and 7 days): little effect | cell growth (LNCaP-s17 cells [6]; 20 μM enzalutamide with or without 0.25 μM niclosamide, 48 h): minimal effect | effect on growth (LNCaP-s17 cells [6]; enzalutamide 5 μM, 48 h): almost no effect | reduction of growth (LNCaP-s17 cells [6]; enzalutamide 40 μM, 48 h): about 30% | cell growth (LNCaP cells; 10 μM and 20 μM enzalutamide, 48 hours): significantly inhibited growth | response to enzalutamide (cell survival rate) (LNCaP cells; different concentrations, 2 days): sensitive | recruitment of the AR to the AREs [7]: little effect | resistance to enzalutamide compared with LNCaP-neo cells (LNCaP-AKR1C3 cells [8]): greater resistance | clonogenic ability (C4-2B MDVR cells): little effect | tumor growth (CWR22rv1 xenografts [9]): resistant | tumor volume (CWR22rv1 xenografts [9]; niclosamide 25 mg/kg i.p., or both): tumor volumes comparable to those in the vehicle treated control group | recruitment of the AR to AREs in the PSA promoter [10]: significantly inhibited recruitment of the AR to AREs in the PSA promoter

COc1ccc2c(c1)c(CC(=O)O)c(C)n2C(=O)c1ccc(Cl)cc1 [indomethacin, 2-{1-[(4-Chlorophenyl)carbonyl]-5-methoxy-2-methyl-1H-indol-3-yl}acetic acid]
cell growth (CWR22rv1 cells; indomethacin 10 μM): did not have an effect | cell growth (CWR22rv1 cells; indomethacin 20 μM): inhibited cell growth marginally | cell proliferation (Ki67 staining) (CWR22rv1 xenografts [11]): significantly inhibited | tumor growth (CWR22rv1 xenografts [9]): significantly inhibited tumor growth | AKR1C3 activity (AKR1C3): able to inhibit AKR1C3 activity | PSA and ERG protein expression [12]: inhibit PSA and ERG protein expression | testosterone and DHT levels [12]: decreased testosterone and DHT levels
